This is an account of results in EP0550006B1, “Use of N-acyl derivatives of aminoalcohols for the manufacture of a medicament for the treatment of pathologies involving mast cells” (LIFEGROUP S.p.A., priority 1991, dated 1993).

No end group written: not given here.

One data set deals with mast cells. Put plainly: in vivo mast cell degranulation induced by substance P, intradermal (topical) application on the auricular pinna. The arrangement: species or system Sprague Dawley rats. Conditions: rat auricular pinna; compound 0.5 mg/kg intradermal, 10 minutes before substance P 10^-4 M intradermal; sacrifice after 30'; solvent group 8. As to the method:
After 10 minutes a local administration of substance P ( 10^-4 M), able to induce a mast cells degranulation response, was carried out still by intradermal route. […] The inhibition degree in mast cells degranulation in the tissues of the animals treated with the compounds under question. in comparison with that of animals treated only with the physiological degranulation factor (substance P) was considered as a parameter for the biological activity.
Consider `CCCCCCCCCCCCCCCC(=O)NCCO` [Example 1, N-palmitoylethanolamide], for which the “% of degranulated mast cells” value stood at 50%.

As for `CCCCCCCCCCCCCCCC(=O)N(CCO)CCO` [Example 2, N,N-bis(2-hydroxyethyl)-palmitamide], the “% of degranulated mast cells” value turned out to be 35%.

As for “substance P (RPKPQQFFGLM; ends and bridges not checked; UniProt P20366 58-68, looked up) [reference compound]”, the “% of degranulated mast cells” value is 94%.

The data set is the same for the next values; noted with them: rat pinna, intradermal; result in words.
Turning to “substance P (RPKPQQFFGLM; ends and bridges not checked; UniProt P20366 58-68, looked up) [reference compound]”, the “mast cells degranulation (morphological analysis)” value is “induced a degranulation in the majority of mast cells”.

Another data set relates to mast cells. Put plainly: in vivo mast cell degranulation induced by substance P, general subcutaneous administration. The arrangement: species or system Sprague Dawley rats. Conditions: rat; compound 20 mg/kg subcutaneous, 30 minutes before substance P 10^-6 M s.c. in the auricular pinna; average of 500-800 cells; solvent group 12. As to the method:
In this case 2-weeks old rats (Sprague Dawley, Charles River) were firstly subcutaneously treated with 20 mg/kg of the substances under question and after 30 minutes were exposed to the degranulation stimulus by s.c. administration of substance P (10^-6 M) in the auricular pinna. Then the rats were sacrificed and the ear pinna removed for histological assessment of mast cell degranulation by counting the number of degranulated mast cells.
The biological parameter of evaluation was the percentage of degranulated mast cells.
In Tab. 2 the obtained results are reported on an average of 500-800 cells.
Regarding `O=C(NCCO)c1ccccc1O` [Example 13, N-(2-hydroxethyl)-salicylamide], the “% of degranulated mast cells” value worked out at 38%.

Regarding `CCCCCCCCCCCCCCCC(=O)NCC(C)O` (stereo not drawn) [Example 3, N-(2-hydroxypropyl)-palmitamide], the “% of degranulated mast cells” value was found to be 49.5%.

`O=C(c1ccccc1)N(CCO)CCO` [Example 9, N,N -bis-(2-hydroxyethyl)-benzoylamide]: the “% of degranulated mast cells” value is given as 36.8%.

Consider `CCCCCCCCCCCCCCCCCC(=O)NCCO` [Example 4, N-(2-hydroxyethyl)-stearoylamide], for which the “% of degranulated mast cells” value was 60%.

With `O=C(CCCCC1CCSS1)NCCO` (racemic) [Example 15, N-(2-hydroxyethy)-DL-α-lipoamide], the “% of degranulated mast cells” value turned out to be 40%.

On to `CCCCCCCCCCCCCCCC(=O)NCCO` [Example 1, N-palmitoylethanolamide], for which the “% of degranulated mast cells” value came to 65%.

On to `CCCCCCCC/C=C\CCCCCCCC(=O)N(CCO)CCO` [Example 10, N,N -bis-(2-hydroxyethyl)-oleoylamide], for which the “% of degranulated mast cells” value worked out at 44%.

For the compound `CCCCC/C=C\C/C=C\CCCCCCCC(=O)N(CCO)CCO` [Example 11, N,N -bis-(2-hydroxyethyl)-linoleoylamide], the “% of degranulated mast cells” value was found to be 71%.

In the case of `O=C(NCCO)c1ccccc1` [Example 8, N-(2-hydroxyethyl)-benzoylamide], the “% of degranulated mast cells” value was determined as 48.8%.

As to `CCCCCCCCCCCCCCCC(=O)N(CCO)CCO` [Example 2, N,N-bis(2-hydroxyethyl)-palmitamide], the “% of degranulated mast cells” value was 48%.

Regarding “substance P (RPKPQQFFGLM; ends and bridges not checked; UniProt P20366 58-68, looked up) [reference compound]”, the “% of degranulated mast cells” value came to 92%.

On to `CCCCCCCCCCCC(=O)N(CCO)CCO` [Example 6, N,N-bis(2-hydroxyethyl)-lauroylamide], for which the “% of degranulated mast cells” value came out at 28%.

Regarding `CCCCCCCCCCCC(=O)NCCO` [Example 5, N-(2-hydroxyethyl)-lauroylamide], the “% of degranulated mast cells” value was found to be 54%.

A further data set has as its system Peritoneal mast cells of rat. The experiment in a line: in vitro mast cell degranulation induced by substance P. Conditions: compound 10^-5 M, 30 minutes incubation, then substance P 10^-4M. In kind it is cell-based. As to the method:
Peritoneal mast cells of rat were taken according to the standard methodology described by Lagunoff (1975, Tech. Biochem. Biophys. Morphol., 2, pp. 289-305).
The cells were then cultured in MEM which 10% fetal calf serum was added to and then incubated in a Haereus^R incubator for 30 minutes.
The derivatives under question at the concentration of 10^-5 M were added to the incubation medium.
At the end of the incubation, the physiological degranulation stimulus represented also in the case by the substance P (10^-4M) was added.
The cells were then centrifugated in order to remove the supernatant formed by the incubation medium and were placed onto a slide after coloration with toluidine blue, for the analysis of the morphological aspect at the optical microscope.
Also under these conditions the parameter to be considered was the percentage of degranulated cells after stimulation with the Substance P.
In the case of `CCCCCCCCCCCCCCCC(=O)NCCO` [Example 1, N-palmitoylethanolamide], the “% of degranulated mast cells” value came out at 52%.

`CCCCCCCCCCCCCCCC(=O)N(CCO)CCO` [Example 2, N,N-bis(2-hydroxyethyl)-palmitamide]: the “% of degranulated mast cells” value is recorded as 30%.

With “substance P (RPKPQQFFGLM; ends and bridges not checked; UniProt P20366 58-68, looked up) [reference compound]”, the “% of degranulated mast cells” value is recorded as 96%.

A further data set concerns inflammatory response.
Assay: not given
As to conditions: tested animal; prior art; cited from earlier work.
In the case of `CCCCCCCCCCCCCCCC(=O)NCCO` [Example 1, N-palmitoylethanolamide], the “inhibition of the inflammatory response” value was “generic activity in inhibiting the inflammatory response”.

A further data set relates to inflammatory response.
Assay: not given
As to conditions: substance extracted from yolk egg, administered to man; Coburn et al 1960; cited from earlier work.
Take `CCCCCCCCCCCCCCCC(=O)NCCO` [Example 1, N-palmitoylethanolamide]: the therapeutic effect result is listed as “not significant”.

A further data set concerns human rheumatoid arthritis.
Assay: not given
As to conditions: Perlik et al. 1974; cited from earlier work.
Turning to `CCCCCCCCCCCCCCCC(=O)NCCO` [Example 1, N-palmitoylethanolamide], the therapeutic efficacy result is “beneficial effects were not so remarkable”.

System in the next data set: not listed separately
The experiment in a line: physchem. Conditions: chloroform, organic solvent or mixture.
As a reminder, the solubility is the concentration that dissolves in the medium under given conditions. Turning to `CCCCCCCCCCCCCCCCCC(=O)NCCO` [Example 4, N-(2-hydroxyethyl)-stearoylamide], the solubility was greater than 5000 µg/mL.

Staying with this data set, now noted: dmso, organic solvent or mixture.
As for `C[C@H](CCC(=O)NCCO)[C@H]1CC[C@H]2[C@@H]3CC[C@@H]4C[C@H](O)CC[C@]4(C)[C@H]3C[C@H](O)[C@]12C` [Example 12, N-(2-hydroxyethyl)-desoxycholamide], the solubility is greater than 10000 µg/mL.

System in another data set: not listed separately
Put plainly: water solubility. Conditions: result in words.
Turning to `CCCCCCCCCCCCCCCC(=O)NCC(C)O` (stereo not drawn) [Example 3, N-(2-hydroxypropyl)-palmitamide], the water solubility entry is “poorly soluble”.

For the compound `CCCCCCCCCCCCCCCC(=O)NCCO` [Example 1, N-palmitoylethanolamide], the water solubility entry is reported as “insoluble”.

With `CCCCCCCC/C=C\CCCCCCCC(=O)N(CCO)CCO` [Example 10, N,N -bis-(2-hydroxyethyl)-oleoylamide], the water solubility entry is given as “poorly soluble”.

In the case of `CCCCC/C=C\C/C=C\CCCCCCCC(=O)N(CCO)CCO` [Example 11, N,N -bis-(2-hydroxyethyl)-linoleoylamide], the water solubility result is “poorly soluble”.

Consider `CCCCCCCCCCCCCCCC(=O)N(CCO)CCO` [Example 2, N,N-bis(2-hydroxyethyl)-palmitamide], for which the water solubility result is “poorly soluble”.

Take `CCCCCCCCCCCC(=O)N(CCO)CCO` [Example 6, N,N-bis(2-hydroxyethyl)-lauroylamide]: the water solubility entry was “poorly soluble”.

Take `CCCCCCCCCCCC(=O)NCCO` [Example 5, N-(2-hydroxyethyl)-lauroylamide]: the water solubility result is listed as “poorly soluble”.

Still in this data set, the particulars now being: water.
In turn, `O=C(NCCO)c1ccncc1` [Example 14, N-(2-hydroxyethyl)-isonicotinamide] displayed a solubility greater than 10000 µg/mL.

`O=C(c1ccccc1)N(CCO)CCO` [Example 9, N,N -bis-(2-hydroxyethyl)-benzoylamide]: the solubility is greater than 10000 µg/mL.

Turning to `O=C(CCCCC1CCSS1)NCCO` (racemic) [Example 15, N-(2-hydroxyethy)-DL-α-lipoamide], the solubility was greater than 10000 µg/mL.

In turn, `O=C(CCCO)NCCO` [Example 7, N-(2-hydroxyethyl)-4-hydroxybutirramide] showed a solubility greater than 10000 µg/mL.

With `O=C(NCCO)c1ccccc1` [Example 8, N-(2-hydroxyethyl)-benzoylamide], the solubility is greater than 10000 µg/mL.

System in another data set: not listed separately
Put plainly: organic solvent solubility. As to conditions: chloroform, organic solvent or mixture.
Turning to `CCCCCCCC/C=C\CCCCCCCC(=O)N(CCO)CCO` [Example 10, N,N -bis-(2-hydroxyethyl)-oleoylamide], the solubility is greater than 10000 µg/mL.

In the case of `CCCCC/C=C\C/C=C\CCCCCCCC(=O)N(CCO)CCO` [Example 11, N,N -bis-(2-hydroxyethyl)-linoleoylamide], the solubility was greater than 10000 µg/mL.

Regarding `CCCCCCCCCCCC(=O)N(CCO)CCO` [Example 6, N,N-bis(2-hydroxyethyl)-lauroylamide], the solubility is greater than 10000 µg/mL.

Turning to `CCCCCCCCCCCC(=O)NCCO` [Example 5, N-(2-hydroxyethyl)-lauroylamide], the solubility is greater than 10000 µg/mL.

Still in this data set, the particulars now being: dmso, organic solvent or mixture.
On to `CCCCCCCCCCCCCCCC(=O)NCC(C)O` (stereo not drawn) [Example 3, N-(2-hydroxypropyl)-palmitamide], for which the solubility is greater than 3000 µg/mL.

For the compound `O=C(c1ccccc1)N(CCO)CCO` [Example 9, N,N -bis-(2-hydroxyethyl)-benzoylamide], the solubility is greater than 10000 µg/mL.

With `CCCCCCCC/C=C\CCCCCCCC(=O)N(CCO)CCO` [Example 10, N,N -bis-(2-hydroxyethyl)-oleoylamide], the solubility was greater than 10000 µg/mL.

Turning to `O=C(CCCO)NCCO` [Example 7, N-(2-hydroxyethyl)-4-hydroxybutirramide], the solubility was greater than 10000 µg/mL.

For `O=C(NCCO)c1ccccc1` [Example 8, N-(2-hydroxyethyl)-benzoylamide], the solubility is greater than 10000 µg/mL.

As to `CCCCCCCCCCCCCCCC(=O)N(CCO)CCO` [Example 2, N,N-bis(2-hydroxyethyl)-palmitamide], the solubility was greater than 10000 µg/mL.

Regarding `CCCCCCCCCCCC(=O)N(CCO)CCO` [Example 6, N,N-bis(2-hydroxyethyl)-lauroylamide], the solubility is greater than 10000 µg/mL.

Turning to `CCCCCCCCCCCC(=O)NCCO` [Example 5, N-(2-hydroxyethyl)-lauroylamide], the solubility was greater than 10000 µg/mL.

Staying with this data set, now noted: ethanol, organic solvent or mixture.
On to `O=C(c1ccccc1)N(CCO)CCO` [Example 9, N,N -bis-(2-hydroxyethyl)-benzoylamide], for which the solubility was greater than 10000 µg/mL.

`O=C(CCCCC1CCSS1)NCCO` (racemic) [Example 15, N-(2-hydroxyethy)-DL-α-lipoamide]: the solubility is greater than 10000 µg/mL.

In the case of `CCCCC/C=C\C/C=C\CCCCCCCC(=O)N(CCO)CCO` [Example 11, N,N -bis-(2-hydroxyethyl)-linoleoylamide], the solubility is greater than 10000 µg/mL.

Regarding `O=C(CCCO)NCCO` [Example 7, N-(2-hydroxyethyl)-4-hydroxybutirramide], the solubility was greater than 10000 µg/mL.

For the compound `O=C(NCCO)c1ccccc1` [Example 8, N-(2-hydroxyethyl)-benzoylamide], the solubility was greater than 10000 µg/mL.

Still in this data set, the particulars now being: methanol, organic solvent or mixture.
On to `O=C(NCCO)c1ccncc1` [Example 14, N-(2-hydroxyethyl)-isonicotinamide], for which the solubility was greater than 10000 µg/mL.

Staying with this data set, now noted: n-octanol, organic solvent or mixture.
In the case of `CCCCCCCCCCCCCCCC(=O)NCC(C)O` (stereo not drawn) [Example 3, N-(2-hydroxypropyl)-palmitamide], the solubility is greater than 10000 µg/mL.

Still in this data set, the particulars now being: solvents in which soluble, in words.
Take `CCCCCCCCCCCCCCCC(=O)NCCO` [Example 1, N-palmitoylethanolamide]: the “solubility in organic solvents” value is reported as “hot methanol, CHCl3, DMSO”.
